In data set [1] the test system is C33A (cervical carcinoma). Kind of data set: sulforhodamine B cell cytotoxicity assay, C33A. Format: cell-based, human. The note with it: for IC50: Homo sapiens, C-33-A. As to the method: (§1) The human cancer cell lines—KB (oral squamous cell carcinoma). C33A (cervical carcinoma), MCF-7 (breast adenocarcinoma), A549 (lung carcinoma) and mouse embryo fibroblast (NIH3T3) were obtained from American Type Culture Collection (ATCC), USA. These cells were grown in recommended media supplemented with 10% FBS, 50 μg/mL gentamycin and 2.5 μg/mL amphotericin B in a 5% CO2 humidified atmosphere at 37° C. Cells below 15 passage level were used for this study. A colorimetric sulforhodamine B assay was used for the measurement of cell cytotoxicity. 1×10^4 cells (in 180 μL) were added to each well of 96-well plate and incubated overnight to allow for cell attachment. Cells were then treated with serial two-fold dilutions of test compounds (100 to 1.6 μM) and untreated cells receiving the same volume of medium served as control. After 48 h of exposure, cells were fixed with ice-cold 50% TCA, stained with 0.4% (w/v) SRB in 1% acetic acid, washed and air dried. Bound dye was dissolved in 150 μL of 10 mM tris base. The plates were read at 540 nm absorbance on plate reader (Polarstar Galaxy, BMG, Germany). The cytotoxic effects of compounds were calculated as % inhibition in cell growth as per the formula […].

The next data set concerns human cancer cell lines. The data set is described as follows: in vitro anticancer activity, cell line panel (cell line not specified). It is filed as cell-based. The note with it: poor activity or lack of activity against other cell lines. How it is done: as §1
Data set [2] concerns KB (oral squamous cell carcinoma). Kind of data set: sulforhodamine B cell cytotoxicity assay, KB. It is filed as cell-based. The note with it: Homo sapiens; Table 2; SRB assay, 48 h of exposure. As to the method:
as §1

A short description of data set [3]: animal weight and overt toxicity in the xenograft study. Format: in vivo, SCID mice. The note with it: for Average Animal weight: 100 mg/kg daily oral upto 15 days. How it is done: (§2) The in vivo efficacy studies were performed using human tumor xenografts in SCID mice. Human cervical cancer cells (HeLa) were injected subcutaneously (1×10^7 cells in 100 μl HBSS medium) on the right flank of each mouse. Tumor bearing mice were divided randomly into treatment groups and the treatment schedules began on day 7 of the xenograft. The test compound (S009-0131) was administered orally to each mouse at a daily dose of 100 mg/kg body weight, for 15 days. The standard anti-cancer drug Adriamycin (ADR) was used as ‘positive’ control and given to each mouse as an i.v. dose of 2 mg/kg body weight, Q7d×3 ([…]). The group of vehicle treated animals served as ‘negative’ control.
(§3) The tumor volume, body weight and signs of overt toxicity were monitored and recorded for the entire duration of the experiment (60 days). Tumor volumes were calculated using the formula (a×b2)/2, where a, b are two longest perpendicular diameters. Tumor growth was expressed in terms of relative tumor volume (RTV) which is the ratio of tumor volume on a particular day to the tumor volume on day 1 of the study. Tumor growth inhibition index (T/C) was calculated as follows: T/C=Average RTV of test group mice/Average RTV of control group mice.

The test system of data set [4] is HeLa Human cervical cancer cells. The data set is described as follows: human tumor xenograft in SCID mice, tumor growth. Format: in vivo. The note with it: for T/C (tumor growth inhibition index): 100 mg/kg daily oral upto 15 days; for RTV (relative tumor volume): 100 mg/kg p.o. daily up to 15 days. How it is done:
as §2, §3
Background: In xenograft studies the graft and the host belong to different species.

For the next data set, the system named is A549 (lung carcinoma). The data set is described as follows: sulforhodamine B cell cytotoxicity assay, A549. It is filed as cell-based. The note with it: Homo sapiens, Table 2, SRB assay, 48 h of exposure. As to the method: as §1
The subject of data set [5] is MCF-7 (breast adenocarcinoma). Kind of data set: sulforhodamine B cell cytotoxicity assay, MCF-7. It is filed as cell-based. The note with it: Homo sapiens, MCF7; Table 2; SRB assay, 48 h of exposure. How it is done: as §1
Background: Sulforhodamine B stains cellular protein and so reports cell mass.

The test system of data set [6] is mouse embryo fibroblast (NIH3T3). Kind of data set: sulforhodamine B cell cytotoxicity assay, NIH3T3 non-cancer cells. Format: cell-based. How it is done:
as §1

[7] abbreviates: Table 2, SRB assay, 48 h of exposure, read-out: IC50 C33A (Cervical).
[8] abbreviates: Table 2, SRB assay, 48 h of exposure, read-out: IC50 NIH3T3 (Non-cancer, fibroblast).

Like-named read-outs stand apart in the source and are kept apart here.

Turning to `CCOC(=O)c1cc2cc(C=CC(=O)c3ccc(C)cc3)cc(C(C)CC)c2oc1=O` (stereo not shown) [Example S009-0131, Ethyl 8-sec-butyl-2-oxo-6-(3-oxo-3-p-tolylprop-1-enyl)-2H-chromene-3-carboxylate], the IC50 (commonly the concentration at which inhibition is half-maximal) was found to be 3.59 µM in data set [1] (Table 1, SRB assay, 48 h of exposure, read-out: IC50 C33A (cervical cancer)); 3.59 µM in [1] (setting [7]); 3.59 µM in [1] (read-out: IC50 against the C33A cell line); 18 µM in data set [2]; 32.8 µM in the data set on A549 (lung carcinoma); 81.1 µM in data set [5]. The IC50 in [6] (Table 1, SRB assay, 48 h of exposure, read-out: IC50 NIH3T3 (mouse fibroblast)) was more than 150 µM; in [6] (setting [8]), more than 150 µM; in data set [6] (read-out: IC50 fibroblast cells NIH3T3), more than 150 µM. For the same molecule, in data set [1] (in words), the “activity against cervical cancer (C33A)” value was “highly active”. Also, the “selectivity among cell lines” value in the data set with human cancer cell lines is given as “most selective”. The “Average Animal weight” value in data set [3] (day 1) is given as 24.2 grams; in data set [3] (day 5), 24.2 grams; in data set [3] (day 9), 23.5 grams; in data set [3] (day 12) it was 18.5 grams; in data set [3] (day 15) it was 22.6 grams; in data set [3] (day 19) it was 22.4 grams. In addition, the “Average Animal weight” value in [3] (day 22) was found to be 23.0 grams; in [3] (day 25) it was 23.2 grams; in data set [3] (day 29), 23.6 grams; in data set [3] (day 33), 23.3 grams; in data set [3] (day 37) it was 23.0 grams; in [3] (day 41) it was 23.4 grams. Further, the “Average Animal weight” value in data set [3] (day 44) came out at 23.8 grams; in data set [3] (day 51), 23.4 grams. Moreover, the “toxicity to the animals (loss of weight)” value in [3] (during the period of the study) was “apparently non-toxic”. The “activity compared with standard drug adriamycin” value in [4] (HeLa xenograft, SCID mice) was “somewhat better than that of the standard drug adriamycin”. Moreover, the “T/C (tumor growth inhibition index)” value was 1 in [4] (day 1); 0.58 in data set [4] (day 5); 0.48 in [4] (day 9); 0.61 in data set [4] (day 12); 0.39 in data set [4] (day 15); 0.28 in [4] (day 19). For the same molecule, the “T/C (tumor growth inhibition index)” value in data set [4] (day 22) came out at 0.33; in [4] (day 25), 0.29; in [4] (day 29) it was 0.33; in data set [4] (day 33) it was 0.42; in [4] (day 37) it was 0.42; in data set [4] (day 41) it was 0.44. Further, the results for the “T/C (tumor growth inhibition index)” value in data set [4] (day 44) and in data set [4] (day 51) were 0.45 and 0.38, respectively. For the same molecule, the “RTV (relative tumor volume)” value in data set [4] (day 1) is 1; in [4] (day 5), 0.76; in data set [4] (day 9), 0.79; in [4] (day 12), 1.21; in data set [4] (day 15), 1.28; in data set [4] (day 19), 1.01. The “RTV (relative tumor volume)” value in data set [4] (day 22) was found to be 1.73; in [4] (day 25), 1.82; in data set [4] (day 29) it was 2.39; in data set [4] (day 33), 4.20. For the same molecule, the “tumor volumes relative to the vehicle control” value in [4] (oral administration, mice bearing HeLa cells) is recorded as “significant reduction of tumor volumes”.

As for `CCNC(=O)c1cc2cc(/C=C/C(=O)c3ccc(C)cc3)cc(C(C)CC)c2oc1=O` (stereo not shown) [Example S010-1995, (E)-8-sec-butyl-N-ethyl-2-oxo-6-(3-oxo-3-p-tolylprop-1-enyl)-2H-chromene-3-carboxamide], the melting point (commonly the temperature, or range, at which the solid turns liquid) was 162 to 163 °C. Further, the IC50 in [1] (setting [7]) was determined as 5.56 µM. Moreover, the IC50 in [2] came out at 10.7 µM. In the data set on A549 (lung carcinoma), this molecule came in with an IC50 of more than 150 µM. The same molecule came in with an IC50 in [5] of 22.2 µM. In addition, the IC50 in data set [6] (setting [8]) was more than 150 µM.

`COC(=O)c1cc2cc(/C=C/C(=O)c3cc(OC)c(OC)c(OC)c3)cc(C(C)(C)C)c2oc1=O` [Example S010-2003, (E)-methyl 8-tert-butyl-2-oxo-6-(3-oxo-3-(3,4,5-trimethoxyphenyl)prop-1-enyl)-2H-chromene-3-carboxylate] gave a melting point of 145 to 146 °C. Moreover, the IC50 in data set [1] (setting [7]) worked out at 4.99 µM. Further, the IC50 in data set [2] is 8.3 µM. The molecule also had an IC50 with A549 (lung carcinoma) of 11.1 µM. Moreover, half-maximal inhibition in data set [5] (IC50) was put at 13.3 µM. For the same molecule, the IC50 in [6] (setting [8]) is more than 150 µM.

Turning to `CCC(C)c1cc(C=CC(=O)c2ccccc2)cc2cc(C(=O)OC)c(=O)oc12` (stereo not shown) [Example S009-0133, Methyl 8-sec-butyl-2-oxo-6-(3-oxo-3-phenylprop-1-enyl)-2H-chromene-3-carboxylate], the melting point lay within 139 to 140 °C. Also, the IC50 in data set [1] (setting [7]) stood at 6.28 µM. Half-maximal inhibition in data set [2] (IC50) required 13.4 µM. Also, half-maximal inhibition in the data set with A549 (lung carcinoma) (IC50) was put at 10.7 µM. The IC50 in data set [5] is 11.4 µM. Besides, in data set [6] (setting [8]), the IC50 was more than 150 µM.
